pEC50, pIC50: −log10 of the molar value. Values belong to the molecule of their own block, whether it stands above or below them. Active and inactive are the calls of the source. The calls are words filed in the database; no cut-off is given here.
Experiments:
[1] = biological target: T1, Casein kinase I isoform delta (Homo sapiens, UniProt P48730); assay: Inhibition of CK1delta (unknown origin) using Light-TopoIla(Thr1342) peptide as substrate incubated for 10 mins in presence of ATP by TR-FRET assay
Target sequence in this assay (P48730 whole entry, canonical isoform): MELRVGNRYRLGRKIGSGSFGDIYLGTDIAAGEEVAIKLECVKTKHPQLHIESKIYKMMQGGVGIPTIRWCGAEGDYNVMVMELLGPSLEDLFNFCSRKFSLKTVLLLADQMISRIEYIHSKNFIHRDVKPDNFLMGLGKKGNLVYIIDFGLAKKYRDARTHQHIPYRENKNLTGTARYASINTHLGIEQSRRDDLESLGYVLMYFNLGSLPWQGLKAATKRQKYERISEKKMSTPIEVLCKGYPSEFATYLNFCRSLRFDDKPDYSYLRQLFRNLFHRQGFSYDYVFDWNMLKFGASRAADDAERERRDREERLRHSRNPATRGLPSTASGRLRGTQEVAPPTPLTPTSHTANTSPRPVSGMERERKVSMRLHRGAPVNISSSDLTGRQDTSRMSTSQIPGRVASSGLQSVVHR

UMUC3 = assay: Antiproliferative activity against human UMUC3 cells assessed as reduction in cell proliferation incubated for 72 hrs by Cell Titer Glo assay; type: functional, cell-based; details: UMUC3, 72 h
T-24 = assay: Antiproliferative activity against human T24 cells assessed as reduction in cell proliferation incubated for 72 hrs by Cell Titer Glo assay; type: functional, cell-based; details: T-24, 72 h
U2OS = assay: Antiproliferative activity against human U2OS cells assessed as reduction in cell proliferation incubated for 72 hrs by Cell Titer Glo assay; type: functional, cell-based
5637 = assay: Antiproliferative activity against human 5637 cells assessed as reduction in cell proliferation incubated for 72 hrs by Cell Titer Glo assay; type: functional, cell-based; details: Homo sapiens, 5637, 72 h
[2] = biological target: T1, Casein kinase I isoform delta; assay: Inhibition of N-terminal His-tagged CK1delta (unknown origin) expressed in Escherichia coli using Light-TopoIla(Thr1342) peptide as substrate at 10 uM incubated for 10 mins in presence of ATP by TR-FRET assay
Target sequence in this assay (P48730 whole entry, looked up, canonical isoform): as the sequence (P48730 whole entry, canonical isoform) above

[3] = biological target: Casein kinase I isoform epsilon (Homo sapiens, UniProt P49674); assay: Inhibition of CK1epsilon (unknown origin)
[4] = biological target: T1, Casein kinase I isoform delta; assay: Inhibition of CK1delta (unknown origin)
Target sequence in this assay (P48730 whole entry, canonical isoform): as above

Sequence of Casein kinase I isoform epsilon (P49674 whole entry, canonical isoform): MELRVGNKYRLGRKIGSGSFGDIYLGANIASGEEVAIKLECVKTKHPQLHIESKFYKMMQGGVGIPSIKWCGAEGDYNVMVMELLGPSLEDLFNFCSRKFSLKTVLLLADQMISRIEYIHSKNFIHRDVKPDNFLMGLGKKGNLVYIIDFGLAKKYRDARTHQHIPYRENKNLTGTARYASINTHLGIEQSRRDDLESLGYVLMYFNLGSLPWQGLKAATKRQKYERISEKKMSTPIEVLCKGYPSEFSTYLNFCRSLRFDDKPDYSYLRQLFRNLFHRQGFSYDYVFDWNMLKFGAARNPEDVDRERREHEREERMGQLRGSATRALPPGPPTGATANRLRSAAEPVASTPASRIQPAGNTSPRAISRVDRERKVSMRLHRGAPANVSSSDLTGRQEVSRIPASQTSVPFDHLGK

SMILES: Fc1cccc(-n2cnc3c(NCc4nc5c(F)c(F)ccc5[nH]4)nc(N4CCOCC4)nc32)c1
- pEC50 (UMUC3): 7.59
- pEC50 (T-24): 8.10
- pEC50 (U2OS): 8.05
- pEC50 5637: 8.22

SMILES: Fc1ccc2[nH]c(CNc3nc(N4CCOCC4)nc4c3ncn4Cc3cccc4ccccc34)nc2c1F
- pIC50 [1]: < 5.00

SMILES: COc1ccc(-n2cnc3c(NCc4nc5c(F)c(F)ccc5[nH]4)nc(N4CCOCC4)nc32)cc1
- pEC50 (UMUC3): 5.24
- pEC50 (T-24): 7.02
- pEC50 (U2OS): 6.79
- pEC50 5637: 6.97

SMILES: Fc1ccc2[nH]c(CNc3nc(N4CCOCC4)nc4c3ncn4CCc3cccc(Br)c3)nc2c1F
- pIC50 [1]: < 5.00

SMILES: Fc1cccc(CCn2cnc3c(NCc4nc5c(F)c(F)ccc5[nH]4)nc(N4CCOCC4)nc32)c1
- pIC50 [1]: < 5.00

SMILES: CCOc1ccc(-n2cnc3c(NCc4nc5c(F)c(F)ccc5[nH]4)nc(N4CCOCC4)nc32)cc1
- pIC50 [1]: < 5.00

SMILES: Fc1cc(F)cc(CCn2cnc3c(NCc4nc5c(F)c(F)ccc5[nH]4)nc(N4CCOCC4)nc32)c1
- pIC50 [1]: < 5.00

SMILES: O=C(Nc1nc2cc(Cl)c(F)cc2[nH]1)c1coc(NC(=O)c2ccccc2OC(F)(F)F)n1
- pIC50 [3]: 7.48
- pIC50 [4]: 7.38

SMILES: Fc1cccc(Cn2cnc3c(NCc4nc5c(F)c(F)ccc5[nH]4)nc(N4CCOCC4)nc32)c1
- pIC50 [1]: < 5.00

SMILES: Fc1ccc2[nH]c(CNc3nc(N4CCOCC4)nc4c3ncn4Cc3ccc4ccccc4c3)nc2c1F
- pIC50 [1]: < 5.00

SMILES: Fc1ccc2[nH]c(CNc3nc(N4CCOCC4)nc4c3ncn4CCc3ccc(C(F)(F)F)cc3)nc2c1F
- inhibition [2]: inactive
- pIC50 [1]: < 5.00

SMILES: Fc1ccc2[nH]c(CNc3nc(N4CCOCC4)nc4c3ncn4CCc3cccc(Cl)c3)nc2c1F
- inhibition [2]: inactive
- pIC50 [1]: < 5.00

The next lines start with results.

- pIC50 [1]: < 5.00
SMILES: Fc1ccc2[nH]c(CNc3nc(N4CCOCC4)nc4c3ncn4-c3ccc4ncsc4c3)nc2c1F

- pIC50 [1]: < 5.00
SMILES: Fc1ccc2[nH]c(CNc3nc(N4CCOCC4)nc4c3ncn4-c3ccc4c(c3)OCCO4)nc2c1F

- pIC50 [1]: < 5.00
SMILES: N#Cc1ccc(CCn2cnc3c(NCc4nc5c(F)c(F)ccc5[nH]4)nc(N4CCOCC4)nc32)cc1

- pIC50 [1]: < 5.00
SMILES: Fc1ccc2[nH]c(CNc3nc(N4CCOCC4)nc4c3ncn4CCc3cccc(C(F)(F)F)c3)nc2c1F

- inhibition [2]: inactive
- pIC50 [1]: < 5.00
SMILES: CC(C)Oc1ccc(-n2cnc3c(NCc4nc5c(F)c(F)ccc5[nH]4)nc(N4CCOCC4)nc32)cc1

- pEC50 (U2OS): 6.43
- pIC50 [1]: < 5.00
SMILES: Fc1ccc2[nH]c(CNc3nc(N4CCOCC4)nc4c3ncn4-c3ccc4ccccc4c3)nc2c1F
- pEC50 (UMUC3): 6.27
- pEC50 (T-24): 6.58
- pEC50 5637: 6.50

— ChEMBL document CHEMBL5338789, “Structure-Based Development of Isoform-Selective Inhibitors of Casein Kinase 1ε vs Casein Kinase 1δ” (J Med Chem, 2023)
